Columns and labels:
Atg12-Bcl-2 interaction [1] = molecular target: Atg12-Bcl-2 interaction (Homo sapiens, UniProt P10415); assay: Co-immunoprecipitation of Flag-Atg12 with endogenous Bcl-2, competition by Bcl-2 inhibitor; assay type: binding; settings: Atg12 immunoprecipitates from HEK293 cells incubated with 10 μM ABT-737 vs DMSO; western blot (FIG. 5G)
From the text: (A) Sequence alignment of the BH3-like region of Atg12 with BH3 domains of the Bcl-2 family using ClustalW. […] Species abbreviations: Hs, Homo sapiens; Sc, Saccharomyces cerevisiae; Dm, Drosophila melanogaster. (B) Co-immunoprecipitation of Flag-tagged hAtg12 and Bcl-2 or Mcl-1 from HEK293 cells co-transfected as indicated. (C) Co-immunoprecipitation of Flag-tagged hAtg12 with endogenous Bcl-2 and Mcl-1 from HEK293 cells. (D) Co-immunoprecipitation of endogenous Atg12 and endogenous Mcl-1 in HEK293 and HeLa cells. (E) Co-immunoprecipitation of Flag-tagged Atg12 and endogenous Bcl-2 in HeLa cells treated with STS (3 μM; 4 h). (F) Co-immunoprecipitation of Flag-tagged Atg12 and endogenous Bcl-2 in HEK293 cells co-expressing a control plasmid (CAT) or HA-tagged BAD. (G) Flag-Atg12 was immunoprecipitated from HEK293 cells and incubated with either 10 μM ABT-737 or DMSO (vehicle control). Co-precipitating Bcl-2 was assessed by western blot after elution with excess Flag peptide. (H) Co-immunoprecipitation of wild-type Atg12 or Atg12/D64 mutants with Bcl-2 in HEK293 cells co-transfected as indicated.

Atg12-Mcl-1 interaction = Atg12-Mcl-1 interaction (Homo sapiens, UniProt Q07820); assay: Co-immunoprecipitation of Flag-Atg12 with Mcl-1, competition by Bcl-2 inhibitor; assay type: binding; settings: Atg12 immunoprecipitates from HEK293 cells incubated with 10 μM ABT-737 (FIG. 5G)
Atg12-Mcl-1 interaction, sequence (Q07820 whole entry): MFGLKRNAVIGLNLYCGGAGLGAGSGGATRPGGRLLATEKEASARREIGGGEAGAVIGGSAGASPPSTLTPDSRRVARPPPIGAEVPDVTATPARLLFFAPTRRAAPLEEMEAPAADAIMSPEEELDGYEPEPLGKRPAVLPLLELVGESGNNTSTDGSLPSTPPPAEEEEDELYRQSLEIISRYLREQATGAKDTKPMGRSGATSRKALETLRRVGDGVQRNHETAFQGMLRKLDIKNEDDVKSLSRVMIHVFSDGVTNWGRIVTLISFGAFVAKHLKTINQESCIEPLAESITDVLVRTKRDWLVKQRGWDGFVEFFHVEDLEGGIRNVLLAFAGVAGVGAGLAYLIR

Atg12-Bcl-2 interaction [2] = assay: Co-immunoprecipitation of Flag-tagged Atg12 and endogenous Bcl-2 in STS-treated HeLa cells; assay type: cell-based, human; settings: STS 3 μM, 4 h (FIG. 5E)
From the text: (A) Sequence alignment of the BH3-like region of Atg12 with BH3 domains of the Bcl-2 family using ClustalW. The four conserved BH3 hydrophobic residues are colored in grey, and the conserved “GD” residues in black. Arrow indicates critical Asp64 residue in hAtg12. Species abbreviations: Hs, Homo sapiens; Sc, Saccharomyces cerevisiae; Dm, Drosophila melanogaster. (B) Co-immunoprecipitation of Flag-tagged hAtg12 and Bcl-2 or Mcl-1 from HEK293 cells co-transfected as indicated. (C) Co-immunoprecipitation of Flag-tagged hAtg12 with endogenous Bcl-2 and Mcl-1 from HEK293 cells. (D) Co-immunoprecipitation of endogenous Atg12 and endogenous Mcl-1 in HEK293 and HeLa cells. (E) Co-immunoprecipitation of Flag-tagged Atg12 and endogenous Bcl-2 in HeLa cells treated with STS (3 μM; 4 h). (F) Co-immunoprecipitation of Flag-tagged Atg12 and endogenous Bcl-2 in HEK293 cells co-expressing a control plasmid (CAT) or HA-tagged BAD. (G) Flag-Atg12 was immunoprecipitated from HEK293 cells and incubated with either 10 μM ABT-737 or DMSO (vehicle control). Co-precipitating Bcl-2 was assessed by western blot after elution with excess Flag peptide. (H) Co-immunoprecipitation of wild-type Atg12 or Atg12/D64 mutants with Bcl-2 in HEK293 cells co-transfected as indicated. In B, C, F-H, DAP1-Flag was used instead of Flag-Atg12 as a negative control for co-immunoprecipitation. […]

Bax = assay: Immunoprecipitation of conformationally active Bax (6A7 antibody) from HeLa cells; assay type: cell-based, human; settings: HeLa cells treated with STS; conformation-specific antibody 6A7 (FIG. 11C)
Procedure: Conformationally active Bax was immunoprecipitated with anti-Bax antibody (6A7, Abcam). Cell pellets from STS-treated HeLa cells (3 μM, 4 h; Sigma Aldrich) were resuspended in 1% CHAPS (3-[(3-cholamidopropyl)-dimethylammonio]-1-propanesulfonate) buffer supplemented with protease and phosphatase inhibitors. Pre-cleared cell lysates were incubated with 2 μg antibody overnight at 4° C., followed by incubation with protein G agarose beads. Beads were washed with lysis buffer and boiled in sample buffer. Western blot detection of total Bax was performed with anti-Bax N20 antibody (Santa Cruz Biotechnology).
Next, it was assessed whether the depletion of Atg12 affected early events in the apoptotic cascade that are regulated by anti-apoptotic Bcl-2 proteins. […] Importantly, Bax activation was restored upon enforced expression of an siRNA-resistant construct of Atg12 (FIG. 11D).

[3] = system: Flag-tagged human Atg12 (wild type)
Flag-tagged Bcl-2 = molecular target: T1, Flag-tagged Bcl-2 (UniProt P10415 1-239); assay: immunoprecipitation of Flag-tagged Bcl-2, western blot for endogenous Atg12
T1 construct: Expressed in HEK293 cells and immunoprecipitated on anti-FLAG beads; also called Flag-Bcl-2; not shown: Flag tag
T1 sequence (P10415 whole entry): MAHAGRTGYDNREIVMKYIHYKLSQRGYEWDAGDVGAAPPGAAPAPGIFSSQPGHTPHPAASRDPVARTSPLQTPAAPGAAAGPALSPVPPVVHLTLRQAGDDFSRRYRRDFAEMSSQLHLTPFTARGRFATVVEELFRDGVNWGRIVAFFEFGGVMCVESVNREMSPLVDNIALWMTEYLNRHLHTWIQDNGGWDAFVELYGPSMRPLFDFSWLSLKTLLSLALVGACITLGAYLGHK
Procedure: (§1) For co-immunoprecipitation, HEK293 cells were transiently transfected with the indicated plasmids. Cell pellets were lysed in B buffer (0.4% NP-40, 0.5 mM EDTA, 100 mM KCl, 20 mM Hepes pH 7.6, 20% glycerol) supplemented with protease and phosphatase inhibitors. […] In Example 7, an irrelevant tagged protein (DAP1-Flag) was used as control.
The conjugation of Atg12 to Atg5 is an essential step in the process of autophagy. In order to establish whether Bcl-2 binds to free Atg12, or to the Atg5-Atg12 conjugate, the nature of endogenous Atg12 that is co-immunoprecipitated with Bcl-2 was examined more closely. Upon immunoprecipitation of Flag-tagged Bcl-2 from HEK293 cells, a single band corresponding to the size of unconjugated Atg12 was observed, with no traces at the expected conjugate size (FIG. 7A, left). Furthermore, neither of Atg12's reported conjugation partners, Atg5 or Atg3, could be detected on this blot. […] The interaction between Bcl-2 and free Atg12 is significant, considering that unconjugated Atg12 represents only a small fraction of cellular Atg12, whereas the majority of the protein is conjugated to Atg5, even under basal conditions when autophagy is not induced (FIG. 7A, right).

Bcl-2 G145A = molecular target: T2, Bcl-2 G145A (UniProt P10415 1-239); assay: co-immunoprecipitation, transiently transfected HEK293 cells
T2 construct: Co-transfected with Flag-Atg12 in HEK293 cells; also called point mutation in the BH1 domain of Bcl-2
T2 sequence (P10415 whole entry G145A, the tested form may be a part): as the sequence (P10415 whole entry) above, with G145A counted along it
Procedure: as §1
Therefore experiments were performed to test whether Atg12 was able to interact with members of each subgroup, specifically Bcl-2 and Mcl-1. In transiently transfected HEK293 cells, wild-type Bcl-2 co-immunoprecipitated with Flag-Atg12 (FIG. 5B). […] The specificity of the interaction was further confirmed by reciprocal co-immunoprecipitation, in which Flag-Bcl-2 pulled down ectopically expressed Atg12 (FIG. 6B). In addition, Mcl-1 also co-immunoprecipitated with Flag-Atg12 upon co-expression (FIG. 5B), and Flag-Atg12 interacted with endogenous Bcl-2 and Mcl-1 (FIG. 5C). Thus, Atg12 is able to bind promiscuously to both subgroups of Bcl-2-related proteins.

Atg12-Bcl-2 interaction (Homo sapiens, UniProt P10415), sequence (P10415 whole entry, the tested form may be a part): as the sequence (P10415 whole entry) above

CN(C)CC[C@H](CSc1ccccc1)Nc1ccc(S(=O)(=O)NC(=O)c2ccc(N3CCN(Cc4ccccc4-c4ccc(Cl)cc4)CC3)cc2)cc1[N+](=O)[O-] [ABT-737]
interaction between Flag-Atg12 and endogenous Bcl-2 (Atg12-Bcl-2 interaction [1]): disrupted | binding of Atg12 to Mcl-1 (Atg12-Mcl-1 interaction): not affected

CN[C@@H]1C[C@H]2O[C@@](C)([C@@H]1OC)n1c3ccccc3c3c4c(c5c6ccccc6n2c5c31)C(=O)NC4 [STS, staurosporine]
binding of Flag-Atg12 to endogenous Bcl-2 (Atg12-Bcl-2 interaction [2]): increased | Bax activation (Bax): activation of Bax

recombinant p38 purified from bacteria
in-vitro kinase assay (33P-ATP); phospho-mapping by mass spectrometry [3]: p38 phosphorylates Atg12 in an in-vitro kinase assay; the site of phosphorylation was Thr65 in Atg12

B1: Atg12 (human; untagged, endogenous, or tag not stated) (other)
chain: MAEEPQSVLQLPTSIAAGGEGLTDVSPETTTPEPPSSAAVSPGTEEPAGDTKKKIDILLKAVGDTPIMKTKKWAVERTRTIQGLIDFIKKFLKLVASEQLFIYVNQSFAPSPDQEVGTLYECFGSDGKLVLHYCKSQAWG
notes: also called hAtg12; endogenous Atg12
binding result (Flag-tagged Bcl-2): binds

B2: Flag-tagged human Atg12 (wild type) (other)
chain: MAEEPQSVLQLPTSIAAGGEGLTDVSPETTTPEPPSSAAVSPGTEEPAGDTKKKIDILLKAVGDTPIMKTKKWAVERTRTIQGLIDFIKKFLKLVASEQLFIYVNQSFAPSPDQEVGTLYECFGSDGKLVLHYCKSQAWG
notes: Expressed from pcDNA3 in HEK293 or HeLa cells and pulled down on anti-FLAG M2 beads; Also used here for the recombinant Atg12 made in E. coli and purified on FLAG-agarose (kinase assay); also called Flag-Atg12; Flag-tagged hAtg12; not shown: Flag tag
binding result (Bcl-2 G145A): no binding

— patent US20140155330A1, “Compositions And Methods For Modulating Apoptosis” (Yeda Research and Development Co. Ltd., priority 2011, published 2014)
